The values below come from PubChem BioAssay (NCI).

The structures appear in SMILES notation.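 Test compounds were applied to cells in 96-well plates for 48 hours at 5 doses. GI50 is the concentration that inhibits growth by half. TGI denotes the concentration required for complete inhibition of growth.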

Some test systems named below: SF-268 CNS; SK-MEL-2 melanoma; COLO 205 colon; SNB-75 CNS; A549 NSCLC; RPMI-8226 leukemia; U251 CNS; SR leukemia; SN12C renal; HCT-15 colon.
Holding throughout (assay): DTP human tumour cell line panel, 48 h

Turning to `O=C1C(Cl)N(c2ccccc2Cl)C1c1c[nH]c2ccccc12` (stereo unspecified), the TGI in the experiment on SF-268 CNS, in the experiment on SK-MEL-2 melanoma, in the experiment on COLO 205 colon, with SNB-75 CNS, in the experiment on A549 NSCLC and in the experiment with RPMI-8226 leukemia was over 100 µM each time. Moreover, the TGI in the experiment on U251 CNS, in the experiment on SR leukemia and in the experiment with SN12C renal was over 100 µM in each case.
`Oc1ccc(C(=C(Br)c2ccccc2)c2ccc(O)cc2)cc1`: the TGI is 16.5 µM in the experiment on SF-268 CNS; 18.3 µM in the experiment with SK-MEL-2 melanoma; 19.4 µM with A549 NSCLC; 96.1 µM with RPMI-8226 leukemia; 15.3 µM with U251 CNS; 14.3 µM in the experiment with HCT-15 colon. In the experiment with SN12C renal, the TGI was 18.9 µM.
For `C=C(C#N)C(=O)OCC(CC)CC.C=C(C#N)C(=O)OCC(CC)CC.CS(C)=O.CS(C)=O.Nc1c(N=Nc2ccc(-c3ccc(N=Nc4cc(S(=O)(=O)[O-])c5ccccc5c4N)cc3)cc2)cc(S(=O)(=O)[O-])c2ccccc12.[Pt+2]`, the GI50 is 24.9 µM with SF-268 CNS; 21.2 µM in the experiment on SK-MEL-2 melanoma; 22.3 µM in the experiment on COLO 205 colon; 65.4 µM in the experiment with SNB-75 CNS; over 86.8 µM in the experiment on A549 NSCLC; 26.9 µM in the experiment with RPMI-8226 leukemia. Further, the GI50 with U251 CNS was 46.7 µM; in the experiment with HCT-15 colon it was 33.2 µM; in the experiment with SN12C renal it was 57.7 µM. The TGI in the experiment with SF-268 CNS is 59.1 µM; in the experiment on SK-MEL-2 melanoma, 50.4 µM; in the experiment on COLO 205 colon it was 45.6 µM; in the experiment with SNB-75 CNS, over 100 µM; in the experiment on A549 NSCLC, over 100 µM; with RPMI-8226 leukemia, over 80.8 µM. Also, the values for the TGI with U251 CNS, in the experiment with HCT-15 colon and in the experiment with SN12C renal were over 100 µM, over 69.3 µM and over 100 µM, respectively.
With `COc1ccc2nc3cc(Cl)ccc3c(NC(C)CCCN(CCCl)CCCl)c2c1` (stereo unspecified), the TGI was 4.28 µM in the experiment with SF-268 CNS; 4.54 µM in the experiment with SK-MEL-2 melanoma; 2.15 µM with COLO 205 colon; 8.98 µM in the experiment on SNB-75 CNS; 7.04 µM in the experiment on A549 NSCLC; 2.93 µM in the experiment on RPMI-8226 leukemia. Further, the TGI was 5.65 µM in the experiment with U251 CNS, 0.502 µM in the experiment with SR leukemia, 6.56 µM in the experiment with HCT-15 colon and 8.66 µM with SN12C renal.
As for `Cc1ccc(S(=O)(=O)N(CC(O)COc2ccccc2)c2c(F)cccc2F)cc1` (stereo unspecified), the TGI with SF-268 CNS was 37.4 µM; in the experiment on SK-MEL-2 melanoma, 32.5 µM; with COLO 205 colon, 27.9 µM; in the experiment with SNB-75 CNS, 49 µM; with A549 NSCLC, 40.1 µM; in the experiment on RPMI-8226 leukemia it was 34 µM. Besides, the TGI with U251 CNS stood at 29.1 µM; in the experiment on SR leukemia, 61.4 µM; with HCT-15 colon, 37 µM; in the experiment with SN12C renal it was 47.8 µM.
Take `COC(=O)c1cc2c(cc1Cl)Sc1nnc(Nc3ccccc3)n1S2(=O)=O`: the TGI with SF-268 CNS was found to be 5.48 µM; in the experiment on SK-MEL-2 melanoma, 8.79 µM; in the experiment on COLO 205 colon it was 19.5 µM; in the experiment on SNB-75 CNS, 17.1 µM; in the experiment on A549 NSCLC it was 26.9 µM; in the experiment on RPMI-8226 leukemia, 4.02 µM. Besides, the concentration for total growth inhibition (TGI) in the experiment on U251 CNS was found to be 11.6 µM; in the experiment on SR leukemia it was 5.36 µM; in the experiment with HCT-15 colon, 6.05 µM; in the experiment with SN12C renal it was 21.8 µM.
For `O=C1c2cc(O)c(O)cc2O[C@H](c2ccc(O)c(O)c2)[C@H]1O`, the TGI with SF-268 CNS, with SK-MEL-2 melanoma, in the experiment with COLO 205 colon, with SNB-75 CNS, in the experiment on A549 NSCLC and in the experiment with RPMI-8226 leukemia was over 100 µM throughout. Besides, the TGI in the experiment on U251 CNS, in the experiment with SR leukemia, with HCT-15 colon and in the experiment on SN12C renal was over 100 µM throughout.
Turning to `O=C1c2cc3c(cc2-c2c1c1ccc(Cl)cc1c(=O)n2C[C@H](O)CO)OCO3`, the GI50 was 0.0185 µM with SF-268 CNS; 0.284 µM in the experiment with SK-MEL-2 melanoma; 0.0954 µM in the experiment on COLO 205 colon; 0.0245 µM in the experiment on SNB-75 CNS; 0.0568 µM in the experiment with A549 NSCLC; 0.0429 µM in the experiment on RPMI-8226 leukemia. For the same molecule, the GI50 in the experiment on U251 CNS is 0.0198 µM; in the experiment on SR leukemia it was under 0.01 µM; in the experiment on HCT-15 colon it was 0.11 µM. Also, the concentration for total growth inhibition (TGI) worked out at 1.04 µM with SF-268 CNS; 1.11 µM in the experiment on SK-MEL-2 melanoma; 10.1 µM with COLO 205 colon; 1.1 µM in the experiment on SNB-75 CNS; 0.72 µM in the experiment with A549 NSCLC; 0.54 µM in the experiment on RPMI-8226 leukemia. Besides, the figures for the concentration for total growth inhibition (TGI) with U251 CNS, in the experiment on SR leukemia and in the experiment with HCT-15 colon were 1.28 µM, 12.7 µM and 1.28 µM, respectively.
Take `O=C1c2ccccc2C(=O)c2[nH]cnc21`: the TGI in the experiment on SF-268 CNS, in the experiment with SK-MEL-2 melanoma, in the experiment on A549 NSCLC, in the experiment on U251 CNS, with SR leukemia and in the experiment on HCT-15 colon was over 100 µM in each case. This molecule had a TGI in the experiment with SN12C renal of over 100 µM.
Regarding `Cc1ccc(S(=O)(=O)OC2CC(C(C)(C)C)CCC2c2ccccc2)cc1` (stereo unspecified), the TGI with SK-MEL-2 melanoma is over 100 µM; in the experiment with COLO 205 colon, over 100 µM; in the experiment on SNB-75 CNS it was 68 µM; in the experiment with A549 NSCLC, over 100 µM; with RPMI-8226 leukemia it was over 100 µM; in the experiment with U251 CNS it was over 100 µM. Further, the concentration for total growth inhibition (TGI) in the experiment on SR leukemia, with HCT-15 colon and with SN12C renal was over 100 µM throughout.
Consider `CCOC(=O)c1c2c(n(-c3ccc(C)cc3)c1C)-c1ccccc1C(=O)C2(C(=O)OCC)C(=O)OCC`, for which the TGI is over 91.9 µM with SF-268 CNS; over 88.5 µM in the experiment on SK-MEL-2 melanoma; over 100 µM in the experiment on COLO 205 colon; over 91.4 µM in the experiment on SNB-75 CNS; over 100 µM in the experiment with A549 NSCLC; 57.5 µM in the experiment with RPMI-8226 leukemia. Besides, the TGI is over 100 µM with U251 CNS, over 4.64 µM with SR leukemia, over 100 µM with HCT-15 colon and over 100 µM with SN12C renal.
As for `CN1C(=O)CC(=O)N1/C(=C/c1ccccc1)c1ccccc1`, the TGI in the experiment with SF-268 CNS, in the experiment on SK-MEL-2 melanoma, in the experiment with COLO 205 colon, in the experiment with SNB-75 CNS, in the experiment with A549 NSCLC and in the experiment with RPMI-8226 leukemia was over 100 µM throughout. The TGI in the experiment with U251 CNS, in the experiment with SR leukemia and in the experiment with SN12C renal was over 100 µM in each case.
Regarding `CCN(CC)CCNc1ccc2ncn3c4ccc(O)cc4c(=O)c1c23`, the TGI with SF-268 CNS was 13.6 µM; in the experiment with SK-MEL-2 melanoma, 21.4 µM; in the experiment on COLO 205 colon, 14.7 µM; in the experiment on SNB-75 CNS it was 11.6 µM; in the experiment with A549 NSCLC it was 7 µM; in the experiment with RPMI-8226 leukemia it was 11.1 µM. Moreover, the TGI in the experiment with U251 CNS stood at 2.75 µM; with SR leukemia, 2.27 µM; with HCT-15 colon it was 13 µM; in the experiment with SN12C renal it was 15.1 µM.
Consider `C=CCNC(=O)C(C)C1CCC2(C)C=CC(=O)C(C)=C2C1O` (stereo unspecified), for which the TGI with SF-268 CNS, in the experiment on SK-MEL-2 melanoma, in the experiment on COLO 205 colon, in the experiment on SNB-75 CNS, in the experiment with A549 NSCLC and in the experiment with RPMI-8226 leukemia was over 100 µM throughout. The TGI in the experiment on U251 CNS, in the experiment on HCT-15 colon and with SN12C renal was over 100 µM throughout.
For the molecule `CSCCC(C(=O)O)N(C)C` (stereo unspecified), the TGI with SF-268 CNS, in the experiment on SK-MEL-2 melanoma, in the experiment with COLO 205 colon, in the experiment with SNB-75 CNS, in the experiment with A549 NSCLC and in the experiment with RPMI-8226 leukemia was over 100 µM each time. Further, the TGI in the experiment with U251 CNS, in the experiment with SR leukemia, with HCT-15 colon and in the experiment on SN12C renal was over 100 µM in each case.
Turning to `O=C(CSCC(=O)N/N=C/c1cccc(O)c1)N/N=C/c1cccc(O)c1`, the TGI in the experiment on SF-268 CNS, with SK-MEL-2 melanoma, in the experiment on COLO 205 colon, with SNB-75 CNS, with A549 NSCLC and in the experiment on RPMI-8226 leukemia was over 100 µM in each case. Besides, the TGI in the experiment with U251 CNS, in the experiment on SR leukemia, with HCT-15 colon and with SN12C renal was over 100 µM each time.
